Experiments:
V79 cells = assay: Uptake of additional phthalocyanines into V79 cells (Table 2); conditions: for Uptake into V79 cells: 18 hours
Protocol: V79 cells Chinese hamster lung fibroblasts were cultured using the cell culture methods described above. […] When the filters were dry, the phthalocyanines were extracted into ethanol and the absorption determined at the peak wavelength, usually 668 nm.

[1] = tested on: chemically-induced benign skin papillomas; assay: PDT of chemically induced skin tumors in SENCAR mice (FIG. 4); assay type: in vivo; conditions: 0.5 and 1.0 mg/kg i.p. in DPPC liposomes
Protocol: 6-week-old female SENCAR mice received a single topical application of 5 μg DMBA in 0.2 ml acetone on the dorsal skin as tumor initiator. One week later, the animals were started on twice-weekly topical applications of 1 μg TPA in 0.2 ml acetone as tumor promoter. All of the animals developed tumors at 12 weeks. Mice that developed 4-5 tumors per animal averaging 5-8 mm in diameter and 2-5 mm in thickness were used. Pc IV, entrapped in DPPC liposomes was administered intraperitoneally at doses of either 0.5 or 1.0 mg/kg and 24 hrs later the tumor area was illuminated with light from an argon pumped dye laser tuned at 675 nm for a total light dose of 135 J/cm^2 (75 mW/cm^2). All possible controls were included; either the animals were untreated, treated only with laser light or treated only with Pc IV alone.

[2] = tested on: Chinese hamster V79-379 cells; assay: Uptake of phthalocyanines by V79 cells relative to AlPcCl (Table 1); assay type: cell-based; conditions: for Uptake, efficiency relative to 1 μM AlPcCl: 18 h
Protocol: Chinese hamster V79-379 lung fibroblasts were grown in monolayer culture in McCoy's 5A medium (Gibco Laboratories, Grand Island, N.Y.) augmented with 10% calf serum and buffered with 20 mM HEPES (pH 7.4).
Total uptake was determined by scraping the phthalocyanine-treated monolayer, collecting the cells on a glass-fiber filter, and extracting the phthalocyanine in ethanol, as previously described by Ramakrishnan, et al., 1989. (Ramakrishnan, N., M. E. Clay, M. F. Horng, A. R. Antunez, & H. H. Evans, "DNA Lesions and DNA Degradation in Mouse Lymphoma L5178Y Cells After Photodynamic Treatment Sensitized by Chloroaluminum Phthalocyanine",Photochem. Photobiol, in press, 1989). The amount of drug was determined by absorption at 674 nm and expressed relative to the number of cells, as measured in a Coulter cell counter on an aliquot of the cell population. Controls included cells not treated with drug, medium alone, and drug-containing medium without cells. The results of the total uptake of the various compositions of the present invention in comparison to AlPcCl are set forth below in Table 1.
The cells were treated with 1 μM AlPcCl (from Eastman Kodak, Rochester, N.Y.) or with phthalocyanine compositions I-VI (0.5-1.0 μM final concentration in the medium) for 18 hours by adding the appropriate volume of a 1.0 mM stock solution in dimethylformamide (DMF) to the culture medium. The growth medium was replaced with 4 ml Hank's balanced salt solution (HBSS), and the cells were irradiated. The light source was a 500 W tungsten-halogen lamp located approximately 29 inches below the surface of a glass exposure tray. The visible light administered to the cells was filtered to allow passage of only that portion of the visible spectrum above 600 nm (Lee Primary red filter No. 106, Vincent Lighting, Cleveland, Ohio). The fluence rate was approximately 0.074 kJ/m^2 /s at the level of the cell monolayer.
All of the compounds have been examined for the extent of cellular uptake after exposure of V79 cells to 1 μM or less in complete medium, and the data of Table 1 are presented relative to the uptake from 1 μM AlPcCl, which was 0.723±0.172 nmole/10^7 cells (mean ±S. D., 25 determinations). […] In particular, when the concentration of Compound IV was 1 μM in the medium, the uptake into the cells was sufficiently high that some of the uptake and phototoxicity studies were repeated at 0.5 μM.

L5178Y cells = assay: Induction of apoptosis (DNA fragmentation) in L5178Y-R cells (Table 6); assay type: cell-based, mouse; conditions: 0.4 μM
Outline: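 Exponentially growing mouse lymphoma L5178Y-R cells loaded 18 hours with phthalocyanine at various concentrations, then irradiated with >600 nm red light (up to 30 kJ/m^2, ~74 W/m^2). DNA isolated 2 hours post-PDT, run on 1.5% agarose; value is minimum PDT dose (concentration × fluence) giving visible DNA ladder.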

CN(C)CCC[Si](C)(C)O[Si]1(O)n2c3c4ccccc4c2N=C2N=C(N=c4c5ccccc5c(n41)=NC1=NC(=N3)c3ccccc31)c1ccccc12 (stereo not shown) [Compound IV, HOSiPcOsi(CH3)2)(CH2)3 N(CH3)2]
uptake by V79 cells (in words) (V79 cells): taken up particulary well | Uptake into V79 cells (V79 cells; 1 μM): 0.7 ± 0.2 n Moles/10^6 cells | Uptake into V79 cells (V79 cells; 2 μM): 3.1 ± 0.3 n Moles/10^6 cells | Uptake into V79 cells (V79 cells; 4 μM): 4.6 ± 2.9 n Moles/10^6 cells | Uptake into V79 cells, composite value (V79 cells; average of all data): 1.1 n Moles/10^6 cells/μM | Uptake (from Table 2) (V79 cells; repeated in Table 3): 1.1 n Moles/10^6 cells/μM | tumor volume (eventual) ([1]; 675 nm, 135 J/cm^2): 0 | tumor recurrence ([1]; 34 days): did not return for the length of the study, 34 days | Uptake, efficiency relative to 1 μM AlPcCl ([2]; 0.5 μM): 1.3 | Uptake, efficiency relative to 1 μM AlPcCl ([2]; 1.0 μM): 1.64 | cellular uptake (in words) ([2]; V79 cells, 1 μM or less, compared with AlPcCl): taken up into the cells more efficiently than was AlPcCl | Minimum Demonstrated Condition to induce apoptosis: C × F (L5178Y cells): 1.2 μm × kJ/m^2 | Minimum Demonstrated Condition to induce apoptosis: Fluence (L5178Y cells): 3.0 kJ/m^2

From US5484778A, “Phthalocyanine photosensitizers for photodynamic therapy and methods for their use” (priority 1993, dated 1996)
